Assay results taken from US4728509A, “Aqueous liquid preparation” (Takeda Chemical Industries, Ltd., priority 1985, dated 1988).
In brackets after ≈: the same amount, converted by molar mass. Like-named read-outs stand apart in the source and are kept apart here.

Tests used:
[1] = Solubility test of compound (a) with and without solubilizers (Experimental Example 1; HPLC of filtrate); settings: phosphate buffer, Solubility of Compound (a), 48 hours
Method: Solubility tests of the compound (a) (2-amino-7-isopropyl-5-oxo-5H-[1]-benzopyrano[2,3-b]pyridine-3-carboxylic acid) employing the solubilizers of this invention and, for comparison, employing various conventional solubilizers were performed.
The solubility was measured by the following manner:
An excess amount of the compound (a) was added to a given volume of a phosphate buffer, the mixture was sufficiently stirred, then the pH was adjusted to a given level, the mixture was allowed to stand at room temperature (25° C.) for 48 hours, the resultant was subjected to filtration with 0.45μ membrane filter, followed by measuring the concentration of the compound (a) in the filtrate by means of high performance liquid chromatography.

[2] = Solubility of compound (a); format: physicochemical
[3] = Stability test of compound (a) in solution, remaining ratio at 60° C. (Experimental Example 2); format: physicochemical; settings: phosphate buffer, pH 7.5±0.1; for remaining at 1344 h: 60° C. after 8 weeks
Method: The stability of the compound (a) was tested by the following manner.
At first, the stability of the compound (a) without any adjuvant was tested for comparison.
Two samples were prepared by dissolving 100 mg and 250 mg each portion of the compound (a) in phosphate buffer. To each of the solutions was added a solution of sodium hydroxide to adjust the pH to 7.5±0.1, followed by addition of purified water to make the whole volume 100 ml, provided that the solution of 2.5 mg/ml was prepared at 40° C. Each solution was filled in a glass bottle, which was stored at 60° C. for evaluation of the stability.
The results were shown in Table 2 as remaining ratio (%).
Next, the effect of improving the stability of the compound (a), when a solubilizer of this invention was added to the solution containing the compound (a), was examined.
To each sample was added a given amount of a solubilizer as specified in the table, followed by working up in a similar manner to the above (pH 7.5±0.1) for evaluation of the stability.
The results were shown in Table 3 as remaining ratio (%).

In the case of `CC(C)c1ccc2oc3nc(N)c(C(=O)O)cc3c(=O)c2c1` [Compound (a), 2-amino-7-isopropyl-5-oxo-5H-[1]-benzopyrano[2,3-b]pyridine-3-carboxylic acid], the solubility at 48 h ([1]; pH 6, aqueous buffer, Caffeine 5 mg/ml, pH 6.0, 25° C.) is reported as 660 µg/mL (≈ 2.21 mM), the solubility at 48 h ([1]; pH 6, aqueous buffer, Caffeine 10 mg/ml, pH 6.0, 25° C.) is reported as 1650 µg/mL (≈ 5.53 mM) and the solubility at 48 h ([1]; pH 6, aqueous buffer, Control, no solubilizer, pH 6.0, 25° C.) is reported as 20 µg/mL (≈ 0.067 mM). For the same compound, the solubility at 48 h ([1]; pH 6, aqueous buffer, Polyvinylpyrrolidone (average molecular weight 40000) 10 mg/ml, pH 6.0, 25° C.) was 120 µg/mL (≈ 0.402 mM), the solubility at 48 h ([1]; pH 6, aqueous buffer, Polyvinylpyrrolidone (average molecular weight 40000) 50 mg/ml, pH 6.0, 25° C.) was 320 µg/mL (≈ 1.07 mM) and the solubility at 48 h ([1]; pH 6, aqueous buffer, Polyvinylpyrrolidone (average molecular weight 40000) 100 mg/ml, pH 6.0, 25° C.) was 1590 µg/mL (≈ 5.33 mM). The solubility at 48 h ([1]; pH 6, aqueous buffer, Sodium benzoate 20 mg/ml, pH 6.0, 25° C.) was 40 µg/mL (≈ 0.134 mM), the solubility at 48 h ([1]; pH 6, aqueous buffer, Tween 80 10 mg/ml, pH 6.0, 25° C.) was 80 µg/mL (≈ 0.268 mM) and the solubility at 48 h ([1]; pH 6, aqueous buffer, β-Cyclodextrin 10 mg/ml, pH 6.0, 25° C.) was 720 µg/mL (≈ 2.41 mM). It also gave a solubility at 48 h ([1]; pH 6.5, aqueous buffer, Caffeine 5 mg/ml, pH 6.5, 25° C.) of 1500 µg/mL (≈ 5.03 mM), a solubility at 48 h ([1]; pH 6.5, aqueous buffer, Caffeine 10 mg/ml, pH 6.5, 25° C.) of 2670 µg/mL (≈ 8.95 mM) and a solubility at 48 h ([1]; pH 6.5, aqueous buffer, Control, no solubilizer, pH 6.5, 25° C.) of 80 µg/mL (≈ 0.268 mM). It also gave a solubility at 48 h ([1]; pH 6.5, aqueous buffer, Isoniazid 10 mg/ml, pH 6.5, 25° C.) of 850 µg/mL (≈ 2.85 mM), a solubility at 48 h ([1]; pH 6.5, aqueous buffer, Nicotinic acid amide 10 mg/ml, pH 6.5, 25° C.) of 820 µg/mL (≈ 2.75 mM) and a solubility at 48 h ([1]; pH 6.5, aqueous buffer, Polyvinylpyrrolidone (average molecular weight 40000) 10 mg/ml, pH 6.5, 25° C.) of 420 µg/mL (≈ 1.41 mM). The solubility at 48 h ([1]; pH 6.5, aqueous buffer, Polyvinylpyrrolidone (average molecular weight 40000) 50 mg/ml, pH 6.5, 25° C.) was 1230 µg/mL (≈ 4.12 mM), the solubility at 48 h ([1]; pH 6.5, aqueous buffer, Polyvinylpyrrolidone (average molecular weight 40000) 100 mg/ml, pH 6.5, 25° C.) was 4630 µg/mL (≈ 15.5 mM) and the solubility at 48 h ([1]; pH 6.5, aqueous buffer, Sodium benzoate 20 mg/ml, pH 6.5, 25° C.) was 290 µg/mL (≈ 0.972 mM). The solubility at 48 h ([1]; pH 6.5, aqueous buffer, Tween 80 10 mg/ml, pH 6.5, 25° C.) was 470 µg/mL (≈ 1.58 mM), the solubility at 48 h ([1]; pH 6.5, aqueous buffer, β-Cyclodextrin 10 mg/ml, pH 6.5, 25° C.) was 1400 µg/mL (≈ 4.69 mM) and the solubility at 48 h ([1]; pH 7, aqueous buffer, Caffeine 5 mg/ml, pH 7.0, 25° C.) was 3720 µg/mL (≈ 12.5 mM). The solubility at 48 h ([1]; pH 7, aqueous buffer, Caffeine 10 mg/ml, pH 7.0, 25° C.) was 7050 µg/mL (≈ 23.6 mM), the solubility at 48 h ([1]; pH 7, aqueous buffer, Control, no solubilizer, pH 7.0, 25° C.) was 330 µg/mL (≈ 1.11 mM) and the solubility at 48 h ([1]; pH 7, aqueous buffer, Isoniazid 10 mg/ml, pH 7.0, 25° C.) was 1330 µg/mL (≈ 4.46 mM). It also gave a solubility at 48 h ([1]; pH 7, aqueous buffer, Nicotinic acid amide 10 mg/ml, pH 7.0, 25° C.) of 1210 µg/mL (≈ 4.06 mM), a solubility at 48 h ([1]; pH 7, aqueous buffer, Polyvinylpyrrolidone (average molecular weight 40000) 10 mg/ml, pH 7.0, 25° C.) of 1060 µg/mL (≈ 3.55 mM) and a solubility at 48 h ([1]; pH 7, aqueous buffer, Polyvinylpyrrolidone (average molecular weight 40000) 50 mg/ml, pH 7.0, 25° C.) of 3230 µg/mL (≈ 10.8 mM). It also gave a solubility at 48 h ([1]; pH 7, aqueous buffer, Polyvinylpyrrolidone (average molecular weight 40000) 100 mg/ml, pH 7.0, 25° C.) of 10000 µg/mL (≈ 33.7 mM), a solubility at 48 h ([1]; pH 7, aqueous buffer, Sodium benzoate 20 mg/ml, pH 7.0, 25° C.) of 420 µg/mL (≈ 1.41 mM) and a solubility at 48 h ([1]; pH 7, aqueous buffer, β-Cyclodextrin 10 mg/ml, pH 7.0, 25° C.) of 2300 µg/mL (≈ 7.71 mM). For the same compound, the solubility at 48 h ([1]; pH 7.5, aqueous buffer, Caffeine 5 mg/ml, pH 7.5, 25° C.) was 7440 µg/mL (≈ 24.9 mM), the solubility at 48 h ([1]; pH 7.5, aqueous buffer, Caffeine 10 mg/ml, pH 7.5, 25° C.) was 9210 µg/mL (≈ 30.9 mM) and the solubility at 48 h ([1]; pH 7.5, aqueous buffer, Control, no solubilizer, pH 7.5, 25° C.) was 1050 µg/mL (≈ 3.52 mM). It also gave a solubility at 48 h ([1]; pH 7.5, aqueous buffer, Isoniazid 10 mg/ml, pH 7.5, 25° C.) of 1560 µg/mL (≈ 5.23 mM), a solubility at 48 h ([1]; pH 7.5, aqueous buffer, Nicotinic acid amide 10 mg/ml, pH 7.5, 25° C.) of 1530 µg/mL (≈ 5.13 mM) and a solubility at 48 h ([1]; pH 7.5, aqueous buffer, Polyvinylpyrrolidone (average molecular weight 40000) 10 mg/ml, pH 7.5, 25° C.) of 3150 µg/mL (≈ 10.6 mM). It also gave a solubility at 48 h ([1]; pH 7.5, aqueous buffer, Polyvinylpyrrolidone (average molecular weight 40000) 50 mg/ml, pH 7.5, 25° C.) of 10400 µg/mL (≈ 34.7 mM), a solubility at 48 h ([1]; pH 7.5, aqueous buffer, Polyvinylpyrrolidone (average molecular weight 40000) 100 mg/ml, pH 7.5, 25° C.) of 18500 µg/mL (≈ 61.9 mM) and a solubility at 48 h ([1]; pH 7.5, aqueous buffer, Sodium benzoate 20 mg/ml, pH 7.5, 25° C.) of 1060 µg/mL (≈ 3.55 mM). The solubility at 48 h ([1]; pH 7.5, aqueous buffer, Tween 80 10 mg/ml, pH 7.5, 25° C.) was 1180 µg/mL (≈ 3.96 mM), the solubility at 48 h ([1]; pH 7.5, aqueous buffer, β-Cyclodextrin 10 mg/ml, pH 7.5, 25° C.) was 4390 µg/mL (≈ 14.7 mM) and the “amount of compound (a) dissolved by the aqueous liquid preparation of this invention” value ([2]; aqueous liquid preparation of this invention, pH 7.2-7.8) was no less than 3 mg/mL. It also gave a solubility ([2]; neutral to alkaline region (pH 7.2-7.8), read-out: solubility) of roughly 1100 µg/mL (≈ 3.69 mM), a solubility ([2]; water, 25° C., read-out: solubility in water) of roughly 10 µg/mL (≈ 0.0335 mM) and a solubility ([2]; water, pH 7.5, cold chamber (5° C.), read-out: solubility in water) of 300 µg/mL (≈ 1.01 mM). For the same compound, the remaining at 168 h ([3]; pH 7.5, compound (a) 1.0 mg/ml, PVP (MW 40,000) 20 mg/ml, 60° C. after 1 week) was 99.5%, the remaining at 336 h ([3]; pH 7.5, compound (a) 1.0 mg/ml, PVP (MW 40,000) 20 mg/ml, 60° C. after 2 weeks) was 99.2% and the remaining at 672 h ([3]; pH 7.5, compound (a) 1.0 mg/ml, PVP (MW 40,000) 20 mg/ml, 60° C. after 4 weeks) was 98.4%. For the same compound, the remaining at 1344 h ([3]; pH 7.5, compound (a) 1.0 mg/ml, PVP (MW 40,000) 20 mg/ml) was 98.1%, the remaining at 168 h ([3]; pH 7.5, compound (a) 2.5 mg/ml, PVP (MW 40,000) 50 mg/ml, 60° C. after 1 week) was 98.9% and the remaining at 336 h ([3]; pH 7.5, compound (a) 2.5 mg/ml, PVP (MW 40,000) 50 mg/ml, 60° C. after 2 weeks) was 99.5%. The remaining at 672 h ([3]; pH 7.5, compound (a) 2.5 mg/ml, PVP (MW 40,000) 50 mg/ml, 60° C. after 4 weeks) was 99.1%, the remaining at 1344 h ([3]; pH 7.5, compound (a) 2.5 mg/ml, PVP (MW 40,000) 50 mg/ml) was 97% and the remaining at 168 h ([3]; pH 7.5, compound (a) 5.0 mg/ml, PVP (MW 40,000) 10 mg/ml + caffeine 10 mg/ml, 60° C. after 1 week) was 98.9%. For the same compound, the remaining at 336 h ([3]; pH 7.5, compound (a) 5.0 mg/ml, PVP (MW 40,000) 10 mg/ml + caffeine 10 mg/ml, 60° C. after 2 weeks) was 99.5%, the remaining at 672 h ([3]; pH 7.5, compound (a) 5.0 mg/ml, PVP (MW 40,000) 10 mg/ml + caffeine 10 mg/ml, 60° C. after 4 weeks) was 98.1% and the remaining at 1344 h ([3]; pH 7.5, compound (a) 5.0 mg/ml, PVP (MW 40,000) 10 mg/ml + caffeine 10 mg/ml) was 98.2%. It also gave a remaining at 168 h ([3]; pH 7.5, compound (a) 10.0 mg/ml, PVP (MW 40,000) 50 mg/ml + β-CD 10 mg/ml, 60° C. after 1 week) of 98.7%, a remaining at 336 h ([3]; pH 7.5, compound (a) 10.0 mg/ml, PVP (MW 40,000) 50 mg/ml + β-CD 10 mg/ml, 60° C. after 2 weeks) of 100% and a remaining at 672 h ([3]; pH 7.5, compound (a) 10.0 mg/ml, PVP (MW 40,000) 50 mg/ml + β-CD 10 mg/ml, 60° C. after 4 weeks) of 98.3%. It also gave a remaining at 1344 h ([3]; pH 7.5, compound (a) 10.0 mg/ml, PVP (MW 40,000) 50 mg/ml + β-CD 10 mg/ml) of 97.3%, a remaining at 672 h ([3]; pH 7.5, no adjuvant, compound (a) 1.0 mg/ml, 60° C. after four weeks) of 85.4% and a remaining at 168 h ([3]; pH 7.5, no adjuvant, compound (a) 1.0 mg/ml, 60° C. after one week) of 99.2%. It also gave a remaining at 336 h ([3]; pH 7.5, no adjuvant, compound (a) 1.0 mg/ml, 60° C. after two weeks) of 97.2%, a remaining at 672 h ([3]; pH 7.5, no adjuvant, compound (a) 2.5 mg/ml, 60° C. after four weeks) of 66.8% and a remaining at 168 h ([3]; pH 7.5, no adjuvant, compound (a) 2.5 mg/ml, 60° C. after one week) of 92.1%. The remaining at 336 h ([3]; pH 7.5, no adjuvant, compound (a) 2.5 mg/ml, 60° C. after two weeks) was 80.5%.
